Source: publication PMC6433685, “Histone deacetylase inhibitor LMK235 attenuates vascular constriction and aortic remodelling in hypertension” (Journal of Cellular and Molecular Medicine, 2019)

What was measured:
HDAC1 = molecular target: T1, HDAC1 (Homo sapiens, UniProt Q13547); assay: HDAC1 fluorogenic enzyme assay kit (BPS Bioscience), cell-free; type: biochemical; conditions: 0.001-10 μmol/L inhibitor
T1 construct: purchased BPS Bioscience 50061

HDAC7 = molecular target: T2, HDAC7 (Homo sapiens, UniProt Q8WUI4); assay: HDAC7 fluorogenic enzyme assay kit (BPS Bioscience), cell-free; type: biochemical; conditions: 0.001-10 μmol/L inhibitor
T2 construct: purchased BPS Bioscience 50067

AT1 and ACE1 mRNA = AT1 and ACE1 mRNA (qRT-PCR) in aortas of SHRs; type: in vivo, rats
Procedure: For the essential hypertension animal experiment, SHRs were used. The SHR is the most used model animal model for hypertension and is generally regarded as an essential hypertension model.13 SHRs (6 weeks old, approximately 170 g) were purchased from Charles River (Yokohama, Japan). Rats were intraperitoneally administered LMK235 or vehicle every 3 days for 2 weeks (n = 4 per group).
(§1) Total RNA from aortic tissue was isolated with TRIzol reagent (Invitrogen Life Technologies), and 1 μg of RNA was used for the reverse transcription reaction with TOPscript RT DryMIX (Enzynomics, South Korea). Quantification of mRNA levels was performed with the SYBR Green PCR kit (Enzynomics, South Korea).

[1] = tested on: cyclin D1, E2F3, p21, CaMKIIα mRNA; assay: Cell cycle gene and CaMKIIα mRNA (qRT-PCR) in aortas of angiotensin II-infusion mice; type: in vivo; conditions: Ang II-infusion mice
Procedure: All animal procedures were approved by the Animal Experimental Committee of Chonnam National University Medical School (CNU IACUC‐H‐2014‐47) and carried out in accordance with the Guide for the Care and Use of Laboratory Animals (US National Institutes of Health Publications, 8th edition, 2011). CD‐1 mice (8 weeks old, 30‐35 g) were used in this study. Hypertension was induced by angiotensin II (Ang II, 1.3 mg/kg/day) infusion using 14‐day micro‐osmotic pumps (Alzet, model 1002; infusion rate of 0.25 μL/h) or saline alone. Ang II osmotic pumps were implanted subcutaneously after the injection of ketamine (120 mg/kg) and xylazine (6.2 mg/kg). One week after Ang II infusion, mice were administered LMK235 (1 or 3 mg/kg/day) or vehicle (dimethylsulphoxide [DMSO]) via intraperitoneal injection for 7 days. Mice were divided into three groups (n = 10‐12 per group): sham + vehicle, Ang II + vehicle, and Ang II + LMK235.
as §1

T1 sequence (Q13547 whole entry): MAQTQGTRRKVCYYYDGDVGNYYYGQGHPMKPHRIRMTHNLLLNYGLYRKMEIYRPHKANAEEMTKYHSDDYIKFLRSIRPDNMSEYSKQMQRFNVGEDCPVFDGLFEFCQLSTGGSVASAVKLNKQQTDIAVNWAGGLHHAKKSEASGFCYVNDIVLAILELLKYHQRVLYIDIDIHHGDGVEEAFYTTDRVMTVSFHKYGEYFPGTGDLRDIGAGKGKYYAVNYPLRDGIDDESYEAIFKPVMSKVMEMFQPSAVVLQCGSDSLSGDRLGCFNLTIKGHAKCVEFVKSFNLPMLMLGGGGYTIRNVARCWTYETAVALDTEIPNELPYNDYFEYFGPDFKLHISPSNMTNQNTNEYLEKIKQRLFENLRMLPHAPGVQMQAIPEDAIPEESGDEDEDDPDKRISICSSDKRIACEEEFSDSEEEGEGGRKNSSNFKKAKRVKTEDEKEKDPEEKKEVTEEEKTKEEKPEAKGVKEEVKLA
T2 sequence (Q8WUI4 whole entry): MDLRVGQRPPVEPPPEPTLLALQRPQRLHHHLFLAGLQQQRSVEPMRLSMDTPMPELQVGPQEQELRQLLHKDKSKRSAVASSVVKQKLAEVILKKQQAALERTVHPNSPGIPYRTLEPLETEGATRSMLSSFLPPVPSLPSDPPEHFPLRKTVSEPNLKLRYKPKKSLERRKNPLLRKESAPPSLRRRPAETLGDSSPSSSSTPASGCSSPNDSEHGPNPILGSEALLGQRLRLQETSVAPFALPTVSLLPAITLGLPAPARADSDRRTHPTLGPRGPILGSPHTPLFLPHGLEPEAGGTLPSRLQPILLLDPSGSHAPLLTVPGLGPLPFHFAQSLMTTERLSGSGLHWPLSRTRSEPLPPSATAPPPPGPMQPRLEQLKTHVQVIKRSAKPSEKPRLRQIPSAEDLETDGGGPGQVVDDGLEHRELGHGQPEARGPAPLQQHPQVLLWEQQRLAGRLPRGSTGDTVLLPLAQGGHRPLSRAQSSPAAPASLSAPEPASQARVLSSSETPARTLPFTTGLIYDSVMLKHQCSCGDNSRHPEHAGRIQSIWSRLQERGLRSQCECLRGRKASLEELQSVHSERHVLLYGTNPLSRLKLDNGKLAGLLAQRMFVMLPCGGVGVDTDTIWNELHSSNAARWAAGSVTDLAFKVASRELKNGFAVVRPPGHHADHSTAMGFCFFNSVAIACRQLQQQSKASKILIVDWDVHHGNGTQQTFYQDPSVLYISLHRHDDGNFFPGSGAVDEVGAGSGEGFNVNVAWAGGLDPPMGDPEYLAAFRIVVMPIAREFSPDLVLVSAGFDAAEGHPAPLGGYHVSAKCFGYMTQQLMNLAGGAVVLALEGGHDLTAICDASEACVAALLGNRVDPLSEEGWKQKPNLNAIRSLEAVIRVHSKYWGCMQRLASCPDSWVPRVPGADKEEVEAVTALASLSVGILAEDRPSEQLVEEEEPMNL

In the case of `Cc1cc(C)cc(C(=O)NOCCCCCC(=O)NO)c1` [LMK235], the IC50 (HDAC1) is reported as 30 nM, the IC50 (HDAC7) is reported as > 20000 nM and the “AT1 mRNA levels in aorta” value (AT1 and ACE1 mRNA) is reported as “not affected”. The “CaMKIIα mRNA levels in aorta” value [1] was “significantly reduced”, the “E2F3 mRNA levels in aorta” value [1] was “significantly suppressed” and the “cyclin D1 mRNA levels in aorta” value [1] was “significantly suppressed”. The “p21 transcript levels in aorta” value [1] was “restored the repressed p21 expression”.
